Measured values taken from US8183252B2, “Heterocyclic aspartyl protease inhibitors” (Schering Corporation, priority 2007, dated 2012).
pKi: −log10 of the molar value.

Target: T1, human BACE1 (sproBACE1) (Homo sapiens, UniProt P56817)
T1 construct: sBACE1, corresponding to amino acids 1-454; made in house; host or cells: Sf9 insect cells (baculovirus), secreted into the medium
Assay: BACE-1 Peptide Hydrolysis Assay (HTRF)
Assay type: biochemical
Conditions: not given
Text: A HindIII/PmeI fragment from pCDNA4-sBACE1myc/His was blunt ended using Klenow and subcloned into the Stu I site of PFASTBACI(A) (Invitrogen). A sBACE1mycHis recombinant bacmid was generated by transposition in DH10Bac cells (GIBCO/BRL). Subsequently, the sBACE1mycHis bacmid construct was transfected into sf9 cells using CellFectin (Invitrogen, San Diego, Calif.) in order to generate recombinant baculovirus. […] Five milliliters of high titer plaque purified sBACEmyc/His virus was used to infect 1 L of logarithmically growing sf9 cells for 72 hours. Intact cells were pelleted by centrifugation at 3000×g for 15 minutes. The supernatant, containing secreted sBACE1, was collected and diluted 50% v/v with 100 mM HEPES, pH 8.0. The diluted medium was loaded onto a Q-sepharose column. The Q-sepharose column was washed with Buffer A (20 mM HEPES, pH 8.0, 50 mM NaCl).
Proteins, were eluted from the Q-sepharose column with Buffer B (20 mM HEPES, pH 8.0, 500 mM NaCl). The protein peaks from the Q-sepharose column were pooled and loaded onto a Ni-NTA agarose column. The Ni-NTA column was then washed with Buffer C (20 mM HEPES, pH 8.0, 500 mM NaCl). Bound proteins were then eluted with Buffer D (Buffer C+250 mM imidazole).
Reactions were initiated by addition of substrate in a 5 μl aliquot resulting in a total volume of 25 μl. After 3 hr at 30° C. reactions were terminated by addition of an equal volume of 2× stop buffer containing 50 mM Tris-HCl pH 8.0, 0.5 M KF, 0.001% Brij-35, 20 μg/ml SA-XL665 (cross-linked allophycocyanin protein coupled to streptavidin; CIS-Bio International, France) (0.5 μg/well). Plates were shaken briefly and spun at 1200×g for 10 seconds to pellet all liquid to the bottom of the plate before the incubation.
Y=Bottom+(Top-Bottom)/(1+10^((LogEC50−X)*Hill Slope)); X is the logarithm of concentration of I, Y is the percent change in ratio and Y starts at bottom and goes to top with a sigmoid shape.

T1 sequence (P56817 22-454): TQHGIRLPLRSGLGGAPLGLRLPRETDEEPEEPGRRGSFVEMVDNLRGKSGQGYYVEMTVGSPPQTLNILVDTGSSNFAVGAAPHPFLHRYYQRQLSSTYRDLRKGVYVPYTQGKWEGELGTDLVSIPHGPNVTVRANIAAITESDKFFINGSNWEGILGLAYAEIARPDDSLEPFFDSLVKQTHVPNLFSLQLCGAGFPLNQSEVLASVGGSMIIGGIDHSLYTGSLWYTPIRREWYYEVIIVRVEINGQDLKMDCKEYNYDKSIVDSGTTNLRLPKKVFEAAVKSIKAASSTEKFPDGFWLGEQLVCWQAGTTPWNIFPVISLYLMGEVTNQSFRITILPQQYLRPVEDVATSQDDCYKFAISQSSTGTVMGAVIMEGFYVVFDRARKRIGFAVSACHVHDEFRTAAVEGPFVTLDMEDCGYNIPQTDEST

| Structure (SMILES) | pKi |
| --- | --- |
| CC(=O)N1CCC(CN2C(=N)NC(C)(c3cccc(-c4cccc(O)c4)c3)C2=O)CC1 (stereo not shown) | > 5.30 |
| CC(=O)N1CCC(CN2C(=N)NC(C)(c3cccc(-c4ccoc4)c3)C2=O)CC1 (stereo not shown) | > 5.30 |

Same assay, conditions: read-out: BACE-1 Ki

| Structure (SMILES) | pKi |
| --- | --- |
| N=C1NC(c2ccccc2)(c2ccccc2)C(=O)N1C[C@H]1CCCN(C(=O)C2CC2)C1 | > 5.30 |
| N=C1NC(c2cccc(-c3cccc(Cl)c3)c2)(C2CC2)C(=O)N1C1CCOCC1 (stereo not shown) [4-imidazolidinone, 5-(3′-chloro[1,1′-biphenyl]-3-yl)-5-cyclopropyl-2-imino-3-(tetrahydro-2H-pyran-4-yl)-] | > 5.30 |
| CSc1cccc(-c2csc([C@]3(C)CC(=O)N(C)C(=N)N3)c2)c1 | > 5.30 |
| N=C1NC(c2cccc(-c3cccc(Cl)c3)c2)(C2CC2)C(=O)N1C1CCC1 (stereo not shown) [4-imidazolidinone, 5-(3′-chloro[1,1′-biphenyl]-3-yl)-3-cyclobutyl-5-cyclopropyl-2-imino-] | > 5.30 |
| CN1C(=N)N[C@](C)(c2cc(-c3cc(F)cc(C#N)c3)nn2C)CC1=O | > 5.30 |
| N=C1NC(c2ccccc2)(c2ccccc2)C(=O)N1CC1CCN(c2ccc3ccccc3n2)CC1 | > 5.30 |
| CCOc1cc(F)cc(-c2csc([C@]3(C)CC(=O)N(C)C(=N)N3)c2)c1 | > 5.30 |
| CN1C(=N)N[C@](C)(c2cc(-c3cccc(C#N)c3)cs2)[C@@H](c2csc3ccccc23)C1=O | > 5.30 |
| CN1C(=N)NC(C)(c2cccc(-c3cc(Cl)ccc3CNC(=O)c3ccnnc3)c2)C1=O (stereo not shown) | > 5.30 |
| CN1C(=N)NC(c2ccccc2)(c2cccc(NCc3ccccc3)c2)C1=O (racemic) | > 5.30 |
| CN1C(=N)N[C@@](c2cccc(-c3cccc(CO)c3)c2)(C2CC2)C1=O | > 5.30 |
| C[C@@]1(c2ccc3sccc3c2)CC(=O)N(CCO)C(=N)N1 | > 5.30 |
| COc1cncc(-c2cccc(C3(C)NC(=N)N(CC4CC(=O)N(Cc5ccccc5)C4)C3=O)c2)c1 (stereo not shown) | > 5.30 |
| CN1C(=N)N[C@](CCC2CCCCC2)(C[C@H]2CCC[C@@H](NC(=O)c3ccnnc3)C2)C1=O | > 5.30 |
| CN1C(=N)NC(c2ccccc2)(c2cc(-c3ccc4c(c3)OCO4)cs2)C1=O (stereo not shown) | > 5.30 |
| CCCC(=O)N1CCC[C@H](CN2C(=N)NC(c3ccccc3)(c3ccccc3)C2=O)C1 | > 5.30 |
| CN1C(=N)NC(c2ccccc2)(c2cc(-c3cccnc3)cs2)C1=O (stereo not shown) | > 5.30 |
| CC(C)Oc1cccc([C@H]2C(=O)N(C)C(=N)N[C@]2(C)c2cc(-c3cccc(C#N)c3)cs2)c1 | > 5.30 |
| CCCS(=O)(=O)Nc1cccc(CN2C(=N)NC(c3ccccc3)(c3ccccc3)C2=O)c1 | > 5.30 |
| CSc1cccc(-c2cccc([C@@]3(C4CC4)NC(=N)N(C)C3=O)c2)c1 | > 5.30 |
| COCC1CCCN1C(=O)c1cncc(CN2C(=N)NC(c3cccc(Br)c3)(C3CC3)C2=O)c1 (stereo not shown) | > 5.30 |
| N=C1NC(c2ccccc2)(c2ccccc2)C(=O)N1Cc1ccsc1 | > 5.30 |
| CN1C(=N)N[C@](C)(c2scc(C#N)c2F)CC1=O | > 5.30 |
| COc1ccc(Cl)c(-c2cc([C@]3(C)CC(=O)N(C)C(=N)N3)cc3ccsc23)c1 | > 5.30 |

| Structure (SMILES) | pKi |
| --- | --- |
| CN1C(=N)NC(C)(c2cccc(-c3cc(Cl)ccc3CNC(=O)Cc3ccccc3)c2)C1=O (stereo not shown) [benzeneacetamide, N-[[5-chloro-3′-(2-imino-1,4-dimethyl-5-oxo-4-imidazolidinyl)[1,1′-biphenyl]-2-yl]methyl]-] | > 5.30 |
| CN1C(=N)N[C@](C)(C[C@H]2CCC[C@@H](Nc3cnccn3)C2)C1=O | > 5.30 |
| CC(C)C1(c2cccc(Br)c2)NC(=N)N(C)C1=O (stereo not shown) | > 5.30 |
| CCCS(=O)(=O)N1CCC[C@H](CN2C(=N)NC(c3ccccc3)(c3ccccc3)C2=O)C1 | > 5.30 |
| CCS(=O)(=O)N1CCC(CN2C(=N)NC(c3ccccc3)(c3ccccc3)C2=O)CC1 [piperidine, 1-(ethylsulfonyl)-4-[(2-imino-5-oxo-4,4-diphenyl-1-imidazolidinyl)methyl]-] | > 5.30 |
| CN1C(=N)NC(C)(c2cc(-c3cccc(C#N)c3)cs2)C(CCN2CCCCC2)C1=O (stereo not shown) | > 5.30 |
| CN1C(=N)N[C@](CCC2CCCCC2)(C[C@H]2CCC[C@@H](NS(=O)(=O)c3ccccc3)C2)C1=O | > 5.30 |
| N=C1NC(c2ccccc2)(c2ccccc2)C(=O)N1CC1CCN(S(=O)(=O)c2ccc(OC(F)(F)F)cc2)CC1 [piperidine, 4-[(2-imino-5-oxo-4,4-diphenyl-1-imidazolidinyl)methyl]-1-[[4-(trifluoromethoxy)phenyl]sulfonyl]-] | > 5.30 |
| Cc1cc(-c2cccc(C3(C4CC4)NC(=N)N(C)C3=O)c2)ccn1 (stereo not shown) | > 5.30 |
| CN1C(=N)NC(C)(c2cccc(N3CCC(C#N)C3)c2)CC1=O (stereo not shown) | > 5.30 |
| CN1C(=N)N[C@](C)(c2c(F)cccc2F)[C@@H](c2ccc(C(F)(F)F)cc2)C1=O | > 5.30 |
| COc1ccccc1C(=O)N[C@@H]1CCC[C@H](C[C@@]2(CCC3CCCCC3)NC(=N)N(C)C2=O)C1 | > 5.30 |
| CN1OCC(C)(c2cccc(-c3cccc(C#N)c3)c2)NC1=N (stereo not shown) | > 5.30 |
| N=C1NC(c2ccccc2)(c2ccccc2)C(=O)N1CC1CCOCC1 | > 5.30 |
| Cc1c(-c2cccc(C#N)c2)csc1[C@]1(C)CC(=O)N(C)C(=N)N1 | > 5.30 |
| N=C1NC(c2ccccc2)(c2ccccc2)C(=O)N1CC1CCN(C(=O)Cc2cccnc2)CC1 | > 5.30 |
| N=C1NC(c2ccccc2)(c2ccccc2)C(=O)N1CC1CCN(C(=O)Nc2cccc(F)c2)CC1 | > 5.30 |
| CN1C(=N)NC(C)(c2cc(-c3cccc(C#N)c3)cs2)C(n2cccn2)C1=O (single isomer, unassigned) | > 5.30 |
| CN1C(=N)NC(c2cccc(Br)c2)(C2CCCC2)C1=O (stereo not shown) [5-(3-BROMOPHENYL)-5-CYCLOPENTYL-2-IMINO-3-METHYL-4-IMIDAZOLIDINONE] | > 5.30 |
| CN1C(=N)N[C@](C)(c2cccc(N3CCCC3)c2)CC1=O | > 5.30 |
| CN1C(=N)N[C@@](CCC2CCCCC2)(C[C@H]2CCC[C@@H](Nc3cnc4cc(Cl)ccc4n3)C2)C1=O | > 5.30 |
| COc1cncc(-c2csc(C3(C4CC4)NC(=N)N(C)C3=O)c2)c1 (stereo not shown) | > 5.30 |
| N=C1NC(c2ccccc2)(c2ccccc2)C(=O)N1Cc1ccoc1 | > 5.30 |
| Cc1nn(C)c2sc([C@]3(C)CC(=O)N(C)C(=N)N3)cc12 | > 5.30 |

| Structure (SMILES) | pKi |
| --- | --- |
| CN1C(=N)N[C@](C)(c2ccc3nn(CC4CCCCC4)cc3c2)CC1=O | > 5.30 |
| Cc1cc([C@]2(C)CC(=O)N(C)C(=N)N2)sc1-c1cccc(OC(F)(F)F)c1 | > 5.30 |
| CN1C(=N)NC(C)(c2cc(-c3cccc(C#N)c3)cs2)C(CCCc2ccccc2)(n2cccn2)C1=O (stereo not shown) | > 5.30 |
| CN1C(=N)NC(C)(c2ccc(C#N)s2)C(c2ccc(Cl)c(Cl)c2)C1=O (stereo not shown) | > 5.30 |
| CCS(=O)(=O)Nc1ccc(CN2C(=N)NC(c3ccccc3)(c3ccccc3)C2=O)cc1 [ethanesulfonamide, N-[4-[(2-imino-5-oxo-4,4-diphenyl-1-imidazolidinyl)methyl]phenyl]-] | > 5.30 |
| COC1C(=O)N(C)C(=N)NC1(C)c1cc(-c2ccc(F)c(C#N)c2)cs1 (single isomer, unassigned) | > 5.30 |
| CN1C(=N)N[C@](C)(c2cc(-c3cccnc3)cs2)CC1=O | > 5.30 |
| CN1C(=N)N[C@@]2(CCCc3sc(-c4ccc(F)c(C#N)c4)cc32)CC1=O | > 5.30 |
| CCCN(CCC)C(=O)CCCCN1C(=N)NC(c2ccccc2)(c2ccccc2)C1=O | > 5.30 |
| CN1C(=N)N[C@](CCc2ccccc2)(C[C@H]2CCC[C@@H](NC(=O)c3cccnc3)C2)C1=O | > 5.30 |
| CN1C(=N)N[C@](C)(c2csc(-c3ccc(F)c(C#N)c3)c2)CC1=O | > 5.30 |
| CN1C(=N)N[C@](C)(c2ncc(-c3cc(F)cc(C#N)c3)s2)CC1=O | > 5.30 |
| CN1C(=N)N[C@](C)(c2ccnc(-c3cccnc3F)c2)CC1=O | > 5.30 |
| Cc1cc([C@]2(C)CC(=O)N(C)C(=N)N2)sc1-c1cccc(C#N)c1 | > 5.30 |
| CN1C(=N)NC(c2ccccc2)(c2cccc(NC(=O)c3ccccc3)c2)C1=O (racemic) | > 5.30 |
| COc1ccc(F)c(-c2cccc(C3(C)CON(C)C(=N)N3)c2)c1 (stereo not shown) | > 5.30 |
| CN1C(=N)N[C@](CCC2CCCCC2)(C[C@H]2CCC[C@@H](NC(=O)c3ccccn3)C2)C1=O | > 5.30 |
| CN1C(=N)NC(c2csc(-c3cccc(C#N)c3)c2)(C2CC2)C1=O (stereo not shown) | > 5.30 |
| CN1C(=N)N[C@](C)(c2cc(-c3ccc(F)c(C#N)c3)c(F)s2)[C@@H](C2CC2)C1=O | > 5.30 |
| CN1C(=N)N[C@](C)(c2cccc(-c3cccnc3F)c2)CC1=O | > 5.30 |
| CC(=O)N1CCC(CN2C(=N)NC(C)(c3cccc(-c4cccc(C(=O)NCc5ccco5)c4)c3)C2=O)CC1 (stereo not shown) | > 5.30 |
| CN1C(=N)N[C@](C)(c2cc(-c3cccc(Cl)c3)ccn2)CC1=O | > 5.30 |
| CCS(=O)(=O)Nc1cccc(CN2C(=N)NC(c3ccccc3)(c3ccccc3)C2=O)c1 | > 5.30 |
